Data set [1] addresses T1, ABCG2 (Homo sapiens, UniProt Q9UNQ0).
T1 sequence (Q9UNQ0 1-655): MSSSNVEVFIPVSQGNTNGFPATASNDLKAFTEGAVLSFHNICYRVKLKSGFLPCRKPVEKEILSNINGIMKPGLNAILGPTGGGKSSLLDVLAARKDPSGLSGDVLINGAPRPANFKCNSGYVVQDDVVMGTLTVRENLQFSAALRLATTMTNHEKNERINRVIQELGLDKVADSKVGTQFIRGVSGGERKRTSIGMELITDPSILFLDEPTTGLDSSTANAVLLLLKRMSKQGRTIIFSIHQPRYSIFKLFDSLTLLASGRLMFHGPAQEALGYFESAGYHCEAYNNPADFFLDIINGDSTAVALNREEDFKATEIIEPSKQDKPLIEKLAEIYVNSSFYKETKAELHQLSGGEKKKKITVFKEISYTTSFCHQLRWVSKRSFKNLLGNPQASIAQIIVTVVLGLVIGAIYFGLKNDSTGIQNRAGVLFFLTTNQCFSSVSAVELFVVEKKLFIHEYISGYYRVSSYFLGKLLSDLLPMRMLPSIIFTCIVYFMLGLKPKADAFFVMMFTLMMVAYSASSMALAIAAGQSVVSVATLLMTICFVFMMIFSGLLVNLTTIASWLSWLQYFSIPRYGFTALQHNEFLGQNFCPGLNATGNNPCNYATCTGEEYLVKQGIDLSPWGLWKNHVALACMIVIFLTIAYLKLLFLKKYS
Put plainly: cell-based. Set-up: full-length ABCG2-WT in MEF cells; species or system MEF (mouse embryonic fibroblasts) expressing human ABCG2-WT; Inhibition of ABCG2-mediated Hoechst 33342 transport; intracellular Hoechst 33342 fluorescence accumulation. The following applies: ABCG2-WT, 0.5 uM Hoechst 33342; read-out: Hoechst 33342 transport inhibition IC50. As for the experimental part:
The intracellular accumulation of fluorescent Hoechst 33342, pheophorbide a, chlorin e6, and purpurin 18, ABCG2 substrates, was used to determine the function of ABCG2. For Hoechst 33342 accumulation assay, MEFs were seeded into a 96-well black clear bottom plate (Corning #3603) at 20,000 cells/well and 0.5 μM Hoechst 33342, and either [compound left out] or the test inhibitor (0.002–10 μM) were added to the culture medium followed by incubation for 2 h at 37 °C in the dark. Thereafter, the medium was removed, and cells were washed twice with 200 μL ice-cold PBS and the fluorescence of Hoechst 33342 was then quantitatively determined with a Synergy H4 microplate reader (BioTek, Winooski, VT, USA) at an excitation wavelength of 355 nm and an emission wavelength of 460 nm. The accumulation of Hoechst 33342 was normalized to protein concentration as determined using the BCA Protein Assay Kit (Pierce, Rockford, IL, USA). […] The intracellular accumulation of pheophorbide a, purpurin 18, or chlorin e6 was measured at an excitation wavelength of 405 nm and an emission wavelength of 667 nm. […] The total radioactivity was measured by liqu Fig. 4 N436A substitution affects inhibitor interaction. a–d Representative snapshots from MDS of tariquidar interacting with ABCG2. a ABCG2-WT with residues within 4 Å of tariquidar are in surface representation. […]

Data set [2] concerns the target T1, ABCG2. The format is cell-based. More on the design: full-length ABCG2-WT in membrane vesicles / MEF cells.
Data set [3] deals with T1, ABCG2. Put plainly: cell-based. Set-up: full-length ABCG2-WT in MEF cells; species or system Abcg2-KO MEFs expressing human ABCG2-WT; Inhibition of ABCG2-mediated Hoechst 33342 efflux; intracellular Hoechst 33342 fluorescence accumulation, normalized to vector control. As to conditions: 0.5 uM Hoechst 33342 substrate, 2 h, 37 °C; read-out: IC50 for transport inhibition in WT. As for the experimental part: The intracellular accumulation of fluorescent Hoechst 33342, pheophorbide a, chlorin e6, and purpurin 18, ABCG2 substrates, was used to determine the function of ABCG2. […] Thereafter, the medium was removed, and cells were washed twice with 200 μL ice-cold PBS and the fluorescence of Hoechst 33342 was then quantitatively determined with a Synergy H4 microplate reader (BioTek, Winooski, VT, USA) at an excitation wavelength of 355 nm and an emission wavelength of 460 nm. The accumulation of Hoechst 33342 was normalized to protein concentration as determined using the BCA Protein Assay Kit (Pierce, Rockford, IL, USA). The data were normalized by the proportion accumulated relative (%) to vector control. For the time-dependent Hoechst 33342 accumulation assay, 10 μM Hoechst 33342 was treated for different time periods (0.5, 1, 1.5, 2, 5, 10, 20, 30, 60, and 90 min). Relative intracellular Hoechst 33342 levels in the MEFs were normalized to vector control at 90 min. For the other fluorescent substrate accumulation assay, 0.5 μM pheophorbide a, 5 μM chlorin e6, or 5 μM purpurin 18 were treated for 1 h at 37 °C in the dark. The intracellular accumulation of pheophorbide a, purpurin 18, or chlorin e6 was measured at an excitation wavelength of 405 nm and an emission wavelength of 667 nm. […] Thereafter, the medium was removed and cells were washed twice with 1 mL ice-cold PBS. […] The total radioactivity was measured by liqu Apparent EC50 and IC50 values were calculated from dose-response data using nonlinear regression analysis. All experiments were independently repeated at least three times. […] Non-polar residues are grey, polar residues are green, and acidic residues are red.

Data set [4] deals with T1, ABCG2. The data set can be described thus: isothermal shift assay on membranes; Hoechst […] transport inhibition; 5D3 shift; disulfide crosslinking. In kind it is cell-based. Set-up: full-length ABCG2-WT in membrane vesicles / MEF cells.

Each structure is given as a SMILES string. Read-outs that look alike come from different tables or passages of the source.

As to `COc1cc2c(cc1OC)CN(CCc1ccc(NC(=O)c3cc(OC)c(OC)cc3NC(=O)c3cnc4ccccc4c3)cc1)CC2` [tariquidar], the IC50 (commonly the concentration at which inhibition is half-maximal) at ABCG2 [1] was 0.08 µM. Further, the “isothermal shift assay on membranes; Hoechst 33342 transport inhibition; 5D3 shi” value at ABCG2 [2] was “ABCG2 inhibitors, Ko143, tariquidar, and lapatinib, strongly and dose-dependently thermally stabilized ABCG2-WT”.

For `CS(=O)(=O)CCNCc1ccc(-c2ccc3ncnc(Nc4ccc(OCc5cccc(F)c5)c(Cl)c4)c3c2)o1` [lapatinib], on ABCG2 [3], the IC50 was determined as 0.05 µM. The “isothermal shift assay on membranes; Hoechst 33342 transport inhibition; 5D3 shi” value on ABCG2 [4] is “ABCG2 inhibitors, Ko143, tariquidar, and lapatinib, strongly and dose-dependently thermally stabilized ABCG2-WT”.

The values above are taken from PMC10439158, “The net electrostatic potential and hydration of ABCG2 affect substrate transport” (Nature Communications, 2023).
